For test [1], the target named is T1, PfCyRPA (Plasmodium falciparum, UniProt Q8IFM8). The format is binding. The conditions noted are these: compound injected first, then 2-6SLN; both at 1 μM.
Target sequence in this assay (Q8IFM8 29-362): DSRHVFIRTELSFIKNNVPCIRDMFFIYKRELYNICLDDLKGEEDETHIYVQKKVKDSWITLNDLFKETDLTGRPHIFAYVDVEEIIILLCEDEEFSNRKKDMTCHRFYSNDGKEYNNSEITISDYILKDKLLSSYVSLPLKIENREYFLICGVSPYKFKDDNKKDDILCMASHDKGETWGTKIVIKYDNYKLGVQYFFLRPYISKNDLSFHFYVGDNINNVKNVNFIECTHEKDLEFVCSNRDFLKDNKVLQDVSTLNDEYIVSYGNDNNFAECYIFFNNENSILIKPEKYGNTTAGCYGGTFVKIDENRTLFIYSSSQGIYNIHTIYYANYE
Test [2] deals with P. falciparum 3D7 clone. In words: In vitro blood stage parasite growth inhibition assay, [3H]-hypoxanthine incorporation, human red blood cells. The format is cell-based, Plasmodium falciparum.
Test [3] concerns the target T1, PfCyRPA. In words: biochemical.
Target sequence in this assay (Q8IFM8 29-362): as above
For test [4], the target named is T1, PfCyRPA.
Target sequence in this assay (Q8IFM8 29-362): as above
The target in test [5] is New Delhi metallo-beta-lactamase 2 (NDM2) (Klebsiella pneumoniae, UniProt C7C422, P28A). Conditions: read-out: NDM2 KD; Table 9.
Test [6] addresses PvCyRPA (Plasmodium vivax, UniProt A5K678, A187P/D259E/E126K/E159D/E86Q/G127E/G69A/H95N/K131E/K185E/K93E/Q142K/R122K/T90K). The format is binding. The conditions noted are these: Table 12, PvCyRPA.
Test [7] deals with T1, PfCyRPA. The conditions noted are these: SPR.
Target sequence in this assay (Q8IFM8 26-362): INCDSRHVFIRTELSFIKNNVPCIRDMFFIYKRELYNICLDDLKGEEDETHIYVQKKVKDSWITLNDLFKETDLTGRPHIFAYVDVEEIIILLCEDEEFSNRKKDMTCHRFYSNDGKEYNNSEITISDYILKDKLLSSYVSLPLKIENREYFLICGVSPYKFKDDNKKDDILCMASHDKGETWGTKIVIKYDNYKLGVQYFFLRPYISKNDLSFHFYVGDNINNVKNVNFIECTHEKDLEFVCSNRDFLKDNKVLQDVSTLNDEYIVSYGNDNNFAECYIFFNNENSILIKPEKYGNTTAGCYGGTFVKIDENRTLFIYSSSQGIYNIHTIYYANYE

The text below walks through data of US20260256822A1, “ENTRY-MODULATING AGENTS AND USES THEREFOR” (priority 2022, published 2026).

Several values for one entry are separate records, joined by “and”; a condition that tells them apart may be missing. Equal values may be shown once. Where a name gives a salt, the structure may show the parent alone. Read-outs that look alike come from different tables or passages of the source.

Usually EC50 stands for the concentration at which the effect is half-maximal. A word on the Kd: it is the concentration at which binding is half-saturated.

Sequence of New Delhi metallo-beta-lactamase 2 (NDM2) (C7C422 29-270 P28A (numbered from the first residue shown)): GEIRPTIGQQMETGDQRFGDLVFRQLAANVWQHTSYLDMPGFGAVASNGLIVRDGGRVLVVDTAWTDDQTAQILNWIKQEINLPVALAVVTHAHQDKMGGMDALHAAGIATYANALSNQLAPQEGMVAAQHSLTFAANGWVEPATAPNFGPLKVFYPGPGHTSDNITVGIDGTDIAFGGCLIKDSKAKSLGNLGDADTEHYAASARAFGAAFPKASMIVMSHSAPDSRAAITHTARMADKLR

As for `CC(O)C(=O)O.CCOc1ccc2nc3cc(N)ccc3c(N)c2c1` (racemic) [RIVANOL, 6,9-Diamino-2-ethoxyacridine-DL-lactate monohydrate], in test [1], the “Blocking of 2-6SLN binding” value is 87.6% ± 9.7. Further, the EC50 in test [2] (Plasmodium falciparum, 3D7, Erythrocyte, Table 8, human RBC, P. falciparum 3D7, read-out: EC50 in RBC infection) was 0.019 µg/mL and 55.3 nM. Further, the “concentration that completely inhibits P. falciparum infection of human RBCs” value in test [2] (human RBC, monohydrate) was 100 ng/mL and 291.1 nM. Moreover, the equilibrium dissociation constant (Kd) in test [3] came to 2.46 ± 0.41 nM.

On to `O=C1CC2(CCCC2)CC(=O)N1CCCCN1CCN(c2ncccn2)CC1` [Buspirone hydrochloride], for which, in test [1], the “Blocking of 2-6SLN binding” value was 77.4% ± 8.2. The molecule further had a Kd in test [3] of 33.6 ± 4.31 nM.

With `CO[C@H]1C[C@H](O[C@H]2[C@H](C)O[C@@H](O[C@@H]3/C(C)=C/C[C@@H]4C[C@@H](C[C@]5(C=C[C@H](C)[C@@H](C6CCCCC6)O5)O4)OC(=O)[C@@H]4C=C(C)[C@@H](O)[C@H]5OC/C(=C\C=C\[C@@H]3C)[C@]54O)C[C@@H]2OC)O[C@@H](C)[C@@H]1O` [Doramectin], the dissociation constant (Kd) in test [4] was 7.04 ± 2.03 µM.

As to `CCC(C)[C@H]1O[C@]2(CC[C@@H]1C)C[C@@H]1C[C@@H](C/C=C(\C)[C@@H](O[C@H]3C[C@H](OC)[C@@H](O[C@H]4C[C@@H](OC)[C@H](O)[C@@H](C)O4)[C@H](C)O3)[C@@H](C)/C=C/C=C3\CO[C@@H]4[C@H](O)C(C)=C[C@@H](C(=O)O1)[C@]34O)O2` (stereo partly shown) [Ivermectin], in test [1], the “Blocking of 2-6SLN binding” value was 67.3% ± 4.9. Besides, the EC50 in test [2] (Plasmodium falciparum, 3D7, Erythrocyte, human RBC, Example 6) is 0.534 µg/mL; in test [2] (read-out: EC50 in RBC infection, Table 7, human RBC, P. falciparum 3D7), 610 nM. Besides, the “concentration that completely inhibits P. falciparum infection of human RBCs” value in test [2] (human RBC) was 2000 ng/mL and 2.29 μM. Moreover, the “affinity of interaction with PfCyRPA” value in test [4] (SPR) is recorded as “high affinity interaction”. The same molecule registered a dissociation constant Kd in test [3] of 93.2 ± 14 nM.

`CO/N=C1\C[C@]2(C[C@@H]3C[C@@H](C/C=C(\C)C[C@@H](C)/C=C/C=C4\CO[C@@H]5[C@H](O)C(C)=C[C@@H](C(=O)O3)[C@]45O)O2)O[C@H](/C(C)=C/C(C)C)[C@H]1C` [Moxidectin] yielded a Kd in test [3] of 13400 ± 521 nM.

Molecule `COc1ccc(CCC(=O)c2c(O)cc(O[C@@H]3O[C@H](CO)[C@@H](O)[C@H](O)[C@H]3O[C@@H]3O[C@@H](C)[C@H](O)[C@@H](O)[C@H]3O)cc2O)cc1O` [Neohesperidin dihydrochalcone] showed a Kd in test [3] of 24.6 ± 1.45 nM.

In turn, `CCC(C)(C)C(=O)O[C@H]1C[C@@H](C)C=C2C=C[C@H](C)[C@H](CC[C@@H]3C[C@@H](O)CC(=O)O3)[C@H]21` [Simvastatin] registered an equilibrium dissociation constant (Kd) in test [3] of 31.4 ± 2.24 nM.

In the case of `[O-][n+]1ccccc1S` [Sodium Pyrithione], the Kd in test [4] (Table 3, PfCyRPA) turned out to be 122 µM; in test [4] (read-out: CyRPA KD, Table 9), 122 µM; in test [5], 789 µM.

Consider `O=S(=O)([O-])[O-].[Zn+2]` [Zinc, Zinc sulfate], for which the Kd in test [4] (Table 3, PfCyRPA) was 546 µM; in test [4] (read-out: CyRPA KD, Table 9), 546 µM; in test [5], 317 µM.

For Abamectin, the “Blocking of 2-6SLN binding” value in test [1] is given as 91.4% ± 6.8. For the same molecule, the “EC50 in RBC infection” value in test [2] (Table 7, human RBC, P. falciparum 3D7) is 888 ng/mL. Further, the half-maximal effective concentration (EC50) in test [2] (Table 7, human RBC, P. falciparum 3D7, read-out: EC50 in RBC infection) turned out to be 1000 nM. The “concentration that completely inhibits P. falciparum infection of human RBCs” value in test [2] (human RBC) is 4000 ng/mL and 4.50 μM. The Kd in test [6] amounted to 1140 ± 230 nM; in test [4], 0.0191 ± 0.00117 µM.

Molecule Emamectin had a Kd in test [4] of over 100 µM.

Milbemycin came in with a Kd in test [4] of 0.967 ± 0.057 µM.

Consider “Neu5Ac-α-(2-6)-Gal-β-(1-4)-GlcNAc [α2-6-SLN-Ac]”, for which the “glycan ligand affinity for PfCyRPA” value in test [7] is on record as “highest affinity ligand”.
